Test results from ChEMBL document CHEMBL4823282, “Novel Broad-Spectrum Antimicrobial Peptide Derived from Anoplin and Its Activity on Bacterial Pneumonia in Mice” (J Med Chem, 2021).
In brackets after ≈: the same amount, converted by molar mass. Where a SMILES comes first, the peptide text is derived from it. Bridges are numbered along the chain shown (N, C = ends). [ ]: non-standard residue; d: D form. The star is where a group is joined. Ileψ(thiazoline)Cys = CC[C@H](C)[C@H](N)C1=N[C@H](C(=O)*)CS1; dOrn = NCCC[C@@H](N)C(=O)O

Legend:
[1] = test system: Staphylococcus aureus; test: Antibacterial activity against Staphylococcus aureus ATCC 25923 incubated for 18 hrs by CLSI based broth dilution method; type: functional
[2] = test system: Bacillus subtilis; test: Antibacterial activity against Bacillus subtilis ATCC 23857 incubated for 18 hrs by CLSI based broth dilution method; type: functional
[3] = test system: Enterococcus faecalis; test: Antibacterial activity against Enterococcus faecalis ATCC 29212 incubated for 18 hrs by CLSI based broth dilution method; type: functional
[4] = test system: Staphylococcus epidermidis; test: Antibacterial activity against Staphylococcus epidermidis ATCC 12228 incubated for 18 hrs by CLSI based broth dilution method; type: functional
[5] = test system: Escherichia coli; test: Antibacterial activity against Escherichia coli ATCC 25922 incubated for 18 hrs by CLSI based broth dilution method; type: functional
[6] = test system: Pseudomonas aeruginosa; test: Antibacterial activity against Pseudomonas aeruginosa ATCC 27853 incubated for 18 hrs by CLSI based broth dilution method; type: functional
[7] = test system: Klebsiella pneumoniae; test: Antibacterial activity against Klebsiella pneumoniae ATCC 700603 incubated for 18 hrs by CLSI based broth dilution method; type: functional
[8] = test system: Acinetobacter baumannii; test: Antibacterial activity against Acinetobacter baumannii ATCC 19606 incubated for 18 hrs by CLSI based broth dilution method; type: functional; settings: ATCC 19606 = CIP 70.34 = JCM 6841
[9] = test system: Erythrocyte; test: Hemolytic activity in BALB/C mouse erythrocytes incubated for 1 hr by absorbance method; type: ADME, cell-based
[10] = Cytotoxicity against human glomerular mesangial cells incubated for 12 hrs by MTT assay; type: cell-based; settings: Glomerular mesangial cell
[11] = test system: Bacteria; test: Antibacterial activity against bacteria incubated for 18 hrs by CLSI based broth dilution method; type: functional
[12] = test system: Fungi; test: Antibacterial activity against fungi incubated for 18 hrs by CLSI based broth dilution method; type: functional
[13] = Selectivity ratio of MHC10 for BALB/C mouse erythrocytes to MIC for bacteria; type: toxicity
[14] = Selectivity ratio of MHC10 for BALB/C mouse erythrocytes to MIC for fungi; type: toxicity
[15] = test system: Bacteria; test: Antibacterial activity against Gram-positive bacteria incubated for 18 hrs by CLSI based broth dilution method; type: functional
[16] = Selectivity ratio of MHC10 for BALB/C mouse erythrocytes to MIC for gram positive bacteria; type: toxicity
[17] = test system: Bacteria; test: Antibacterial activity against Gram-negative bacteria incubated for 18 hrs by CLSI based broth dilution method; type: functional
[18] = Selectivity ratio of MHC10 for BALB/C mouse erythrocytes to MIC for gram-negative bacteria; type: toxicity

| Structure (SMILES) | MIC [1] | MIC [2] | MIC [3] | MIC [4] | MIC [5] | MIC [6] | MIC [7] | MIC [8] | MHC10 [9] | IC50 [10] | MIC [11] | MIC [12] | selectivity ratio [13] | selectivity ratio [14] | MIC [15] | selectivity ratio at 18 h [16] | MIC [17] | selectivity ratio [18] |
| --- | --- | --- | --- | --- | --- | --- | --- | --- | --- | --- | --- | --- | --- | --- | --- | --- | --- | --- |
| C[C@H](NC(=O)[C@H](C)NC(=O)[C@@H](NC(=O)[C@H](CCCCN)NC(=O)[C@H](C)NC(=O)[C@H](CCCNC(=N)N)NC(=O)[C@H](CCCCN)NC(=O)[C@H](C)NC(=O)[C@H](C)NC(=O)CN)[C@@H](C)O)C(N)=O (H-GAAKRAKTAA-NH2) | ≥ 512 µM | ≥ 512 µM | ≥ 512 µM | ≥ 512 µM | ≥ 512 µM | ≥ 512 µM | ≥ 512 µM | ≥ 512 µM | >= 512 uM | ≥ 512 µM | ≥ 512 µM | ≥ 512 µM | 1 | 1 | ≥ 512 µM | 1 | ≥ 512 µM | 1 |
| CC(C)C[C@H](NC(=O)[C@H](C)NC(=O)[C@@H](NC(=O)[C@H](CCCCN)NC(=O)[C@H](C)NC(=O)[C@H](CCCNC(=N)N)NC(=O)[C@H](CCCCN)NC(=O)[C@H](C)NC(=O)[C@H](C)NC(=O)CN)[C@@H](C)O)C(N)=O (H-GAAKRAKTAL-NH2) | ≥ 512 µM | ≥ 512 µM | ≥ 512 µM | ≥ 512 µM | ≥ 512 µM | ≥ 512 µM | ≥ 512 µM | ≥ 512 µM | >= 512 uM | ≥ 512 µM | ≥ 512 µM | ≥ 512 µM | 1 | 1 | ≥ 512 µM | 1 | ≥ 512 µM | 1 |
| CC(C)C[C@H](NC(=O)[C@H](C)NC(=O)[C@@H](NC(=O)[C@H](CCCCN)NC(=O)[C@H](C)NC(=O)[C@H](CCCNC(=N)N)NC(=O)[C@H](CCCCN)NC(=O)[C@H](CC(C)C)NC(=O)[C@H](C)NC(=O)CN)[C@@H](C)O)C(N)=O (H-GALKRAKTAL-NH2) | ≥ 512 µM | ≥ 512 µM | ≥ 512 µM | ≥ 512 µM | ≥ 512 µM | ≥ 512 µM | ≥ 512 µM | ≥ 512 µM | >= 512 uM | ≥ 512 µM | ≥ 512 µM | ≥ 512 µM | 1 | 1 | ≥ 512 µM | 1 | ≥ 512 µM | 1 |
| CC(C)C[C@H](NC(=O)[C@H](Cc1ccccc1)NC(=O)CN)C(=O)N[C@@H](CCCCN)C(=O)N[C@@H](CCCNC(=N)N)C(=O)N[C@@H](Cc1ccccc1)C(=O)N[C@@H](CCCCN)C(=O)N[C@H](C(=O)N[C@@H](CC(C)C)C(=O)N[C@@H](Cc1ccccc1)C(N)=O)[C@@H](C)O (H-GFLKRFKTLF-NH2) | 64 µM (≈ 80.4 µg/mL) | 64 µM (≈ 80.4 µg/mL) | 128 µM (≈ 161 µg/mL) | 8 µM (≈ 10 µg/mL) | 64 µM (≈ 80.4 µg/mL) | 64 µM (≈ 80.4 µg/mL) | 128 µM (≈ 161 µg/mL) | 128 µM (≈ 161 µg/mL) | 384 µM | 209 µM | 49.4 µM (≈ 62 µg/mL) | 49.4 µM (≈ 62 µg/mL) | 7.78 | 7.78 | 45.3 µM (≈ 56.9 µg/mL) | 8.48 | 53.8 µM (≈ 67.6 µg/mL) | 7.14 |
| CC[C@H](C)[C@H](NC(=O)CN)C(=O)N[C@@H](CCCNC(=N)N)C(=O)N[C@@H](Cc1c[nH]c2ccccc12)C(=O)N[C@@H](CCCCN)C(=O)N[C@@H](Cc1ccccc1)C(=O)N[C@@H](Cc1c[nH]c2ccccc12)C(=O)N[C@@H](CCCCN)C(=O)N[C@@H](Cc1ccccc1)C(=O)N[C@H](C(N)=O)[C@@H](C)O (H-GIRWKFWKFT-NH2) | 32 µM (≈ 43.8 µg/mL) | 64 µM (≈ 87.5 µg/mL) | 128 µM (≈ 175 µg/mL) | 128 µM (≈ 175 µg/mL) | 32 µM (≈ 43.8 µg/mL) | 32 µM (≈ 43.8 µg/mL) | 64 µM (≈ 87.5 µg/mL) | 128 µM (≈ 175 µg/mL) | >= 512 uM | ≥ 512 µM | 58.7 µM (≈ 80.3 µg/mL) | 58.7 µM (≈ 80.3 µg/mL) | 8.72 | 8.72 | 76.1 µM (≈ 104 µg/mL) | 6.73 | 45.3 µM (≈ 62 µg/mL) | 11.3 |
| CC[C@H](C)[C@H](N)C1=N[C@H](C(=O)N[C@@H](CC(C)C)C(=O)N[C@H](CCC(=O)O)C(=O)N[C@H](C(=O)N[C@H]2CCCCNC(=O)[C@H](CC(N)=O)NC(=O)[C@@H](CC(=O)O)NC(=O)[C@H](Cc3cnc[nH]3)NC(=O)[C@@H](Cc3ccccc3)NC(=O)[C@H]([C@@H](C)CC)NC(=O)[C@@H](CCCN)NC2=O)[C@@H](C)CC)CS1 [BACITRACIN] ({Ileψ(thiazoline)Cys}-L[dE]IK[dOrn]I[dF]H[dD]N; lactam 4-C) | 16 µM (≈ 22.8 µg/mL) | ≥ 512 µM | 32 µM (≈ 45.5 µg/mL) | 8 µM (≈ 11.4 µg/mL) | ≥ 512 µM | ≥ 512 µM | ≥ 512 µM | ≥ 128 µM | – | – | – | – | – | – | – | – | – | – |
| CO/N=C(\C(=O)N[C@@H]1C(=O)N2C(C(=O)O)=C(COC(C)=O)CS[C@H]12)c1csc(N)n1 [CEFOTAXIME] | 2 µM (≈ 0.911 µg/mL) | < 1 µM | ≥ 512 µM | 2 µM (≈ 0.911 µg/mL) | < 1 µM | < 1 µM | 8 µM (≈ 3.64 µg/mL) | 32 µM (≈ 14.6 µg/mL) | – | – | – | – | – | – | – | – | – | – |
| C[C@@H](O)[C@H]1C(=O)N2C(C(=O)O)=C(SCCNC=N)C[C@H]12 [IMIPENEM ANHYDROUS] | < 1 µM | < 1 µM | < 1 µM | < 1 µM | < 1 µM | < 1 µM | < 1 µM | < 1 µM | – | – | – | – | – | – | – | – | – | – |
| NC[C@H]1O[C@H](O[C@H]2[C@H](O)[C@@H](O[C@H]3O[C@H](CO)[C@@H](O)[C@H](N)[C@H]3O)[C@H](N)C[C@@H]2N)[C@H](O)[C@@H](O)[C@@H]1O [KANAMYCIN] | < 1 µM | < 1 µM | 8 µM (≈ 3.88 µg/mL) | < 1 µM | 8 µM (≈ 3.88 µg/mL) | 8 µM (≈ 3.88 µg/mL) | 32 µM (≈ 15.5 µg/mL) | 4 µM (≈ 1.94 µg/mL) | – | – | – | – | – | – | – | – | – | – |
| C[C@@H](O)[C@H]1C(=O)N2C(C(=O)O)=C(S[C@@H]3CN[C@H](C(=O)N(C)C)C3)[C@H](C)[C@H]12 [MEROPENEM] | < 1 µM | < 1 µM | 4 µM (≈ 1.53 µg/mL) | < 1 µM | < 1 µM | < 1 µM | < 1 µM | < 1 µM | – | – | – | – | – | – | – | – | – | – |
| CC1(C)S[C@@H]2[C@H](NC(=O)Cc3ccccc3)C(=O)N2[C@H]1C(=O)O [PENICILLIN G] | < 1 µM | < 1 µM | 4 µM (≈ 1.34 µg/mL) | 16 µM (≈ 5.35 µg/mL) | 64 µM (≈ 21.4 µg/mL) | 64 µM (≈ 21.4 µg/mL) | ≥ 512 µM | 128 µM (≈ 42.8 µg/mL) | – | – | – | – | – | – | – | – | – | – |
| CN[C@@H]1[C@H](O[C@H]2[C@H](O[C@H]3[C@H](O)[C@@H](O)[C@H](N=C(N)N)[C@@H](O)[C@@H]3N=C(N)N)O[C@@H](C)[C@]2(O)C=O)O[C@@H](CO)[C@H](O)[C@H]1O [STREPTOMYCIN] | < 1 µM | 2 µM (≈ 1.16 µg/mL) | 16 µM (≈ 9.31 µg/mL) | 32 µM (≈ 18.6 µg/mL) | 4 µM (≈ 2.33 µg/mL) | 4 µM (≈ 2.33 µg/mL) | < 1 µM | 2 µM (≈ 1.16 µg/mL) | – | – | – | – | – | – | – | – | – | – |
